Results reported in article PMC11489206, “Transport of perfluoroalkyl substances across human induced pluripotent stem cell-derived intestinal epithelial cells in comparison with primary human intestinal epithelial cells and Caco-2 cells” (Archives of Toxicology, 2024).
Like-named read-outs stand apart in the source and are kept apart here. Marks after values point to notes of the source that are not given here.

Key:
[1] = Transport study across hiPSC-derived IEC layers; conditions: human
Procedure: For differentiation into IECs, definitive endoderm cells were subsequently differentiated into intestinal stem cells by changing medium into DMEM/F12 containing 2% fetal bovine serum, 1% GlutaMAX (Gibco) and 250 ng/ml FGF2 (R&D Systems). After 4 days, cells were dissociated using Accutase and seeded onto polyester Transwell inserts (0.4 µm, Corning) coated with Growth Factor Reduced Matrigel #356231. Cells were cultured for 7 days in intestinal differentiation medium (DMEM/F-12 containing 2% fetal bovine serum, 1% non-essential amino acids (Gibco), 1 × B27 (Gibco), 1 × N2 (Gibco), 1% penicillin/streptomycin (Gibco) and 2 mM L-glutamine (Gibco)) supplemented with 20 ng/ml EGF (R&D Systems) and 30 µM Forskolin (Sigma). ROCK inhibitor, y-27632 (final concentration 10 µM; Stem Cell Technologies), was added during the initial 24 h after seeding to reduce cell death. The cells were subsequently cultured for 12 days in intestinal differentiation medium supplemented with 20 ng/ml EGF, 30 µM Forskolin, 5 µM 5-aza-2′-deoxycytidine (Sigma), 20 µM PD98059 (Stem Cell Technologies) and 0.5 µM A-83–01 (Sigma). The medium was refreshed every 2–3 days. Barrier integrity was determined by measuring apical to basolateral translocation of Lucifer yellow (see Supplementary Data for a detailed description).
(§1) Transport studies were performed in Caco-2 cells, hiPSC-derived IECs and EpiIntestinal microtissues. To that end, Caco-2 cell layers were differentiated for 21 days and hiPSCs were differentiated into IEC layers for 26 days, as described above. EpiIntestinal microtissues were subjected to transport studies 1 day after arrival. […] For all models, PFAS transport was assessed in apical to basolateral, and basolateral to apical direction using HBSS containing a mixture of PFASs containing 1 µM of each PFAS. See Supplementary Data for a detailed description of the method used for the transport studies of the model compounds and PFASs.
Prior to exposure to the transport study compounds, the cells were washed with transport medium (HBSS; Sigma). […] 100 µL aliquots were collected from the basolateral compartment and replaced with the same volume HBSS at settled time points (0, 15, 30 and 60 min). For basolateral to apical transport in the EpiIntestinal microtissues, 0.2 mL HBSS was added to the apical compartment and 0.5 mL HBSS containing a mixture of PFASs containing 1 µM of each PFAS, was added to the basolateral compartment. 100 µL aliquots were collected from the apical compartment and replaced with the same volume of HBSS at settled time points (0, 15, 30 and 60 min). For apical to basolateral transport across the Caco-2 cell layers and hiPSC-derived IEC layers, 1.2 mL HBSS was added to the basolateral compartment and 0.4 mL HBSS containing either model compounds (10 µM) or a mixture of PFASs containing 1 µM of each PFAS, was added to the apical compartment. 100 µL aliquots were collected from the basolateral compartment and replaced with the same volume of HBSS at settled time points (0, 7.5, 15, 30 and 60 min for the model compounds with both models and the PFASs with the hiPSC-derived IEC layers and 0, 15, 30 and 60 min for PFASs with the Caco-2 cell layers). For basolateral to apical transport, 0.4 mL HBSS was added to the apical compartment and 1.2 mL HBSS containing 10 µM of the model compounds or a mixture of PFASs containing 1 µM of each PFAS, was added to the basolateral compartment. 100 µL aliquots were collected from the apical compartment and replaced with the same volume of HBSS at settled time points (0, 7.5, 15, 30 and 60 min for the model compounds with both models and the PFASs with the hiPSC-derived IEC layers and 0, 15, 30 and 60 min for PFASs with the Caco-2 cell layers).

[2] = Transport study across Caco-2 cell layers; conditions: human, Caco-2
Procedure: Human colorectal adenocarcinoma cells (Caco-2, HTB-37) were obtained from American Type Culture Collection (ATCC, Manassas, VA). Cells were cultured in a humidified incubator (37°C, 5% CO2) in Dulbecco’s modified Eagle’s medium (DMEM) supplemented with 10% heat-inactivated fetal bovine serum (Gibco, Thermo Fisher Scientific, Waltham, MA), 1% non-essential amino acids (Gibco) and 1% penicillin/streptomycin (Sigma). For experiments, Caco-2 cells below passage number 50 were used within 10 passages. They were harvested at 80% confluence using Trypsin/EDTA (0.25%/0.05%; PAN Biotech, Aidenbach, Germany) and seeded at a density of 4 × 10^5 cells/cm^2 into inserts with a polycarbonate membrane (0.4 µm pore, Corning, New York, NY). After 21 days of differentiation (using 500 µl cell culture medium in the apical and 1500 µl in the basolateral compartment), monolayer integrity was determined by measuring transepithelial electrical resistance (TEER) with a Millicell ERS Volt-Ohm meter (Millipore, Bedford, MA).
as §1
(§2) Prior to exposure to the transport study compounds, the cells were washed with transport medium (HBSS; Sigma). […] 100 µL aliquots were collected from the basolateral compartment and replaced with the same volume HBSS at settled time points (0, 15, 30 and 60 min). For basolateral to apical transport in the EpiIntestinal microtissues, 0.2 mL HBSS was added to the apical compartment and 0.5 mL HBSS containing a mixture of PFASs containing 1 µM of each PFAS, was added to the basolateral compartment. 100 µL aliquots were collected from the apical compartment and replaced with the same volume of HBSS at settled time points (0, 15, 30 and 60 min). For apical to basolateral transport across the Caco-2 cell layers and hiPSC-derived IEC layers, 1.2 mL HBSS was added to the basolateral compartment and 0.4 mL HBSS containing either model compounds (10 µM) or a mixture of PFASs containing 1 µM of each PFAS, was added to the apical compartment. 100 µL aliquots were collected from the basolateral compartment and replaced with the same volume of HBSS at settled time points (0, 7.5, 15, 30 and 60 min for the model compounds with both models and the PFASs with the hiPSC-derived IEC layers and 0, 15, 30 and 60 min for PFASs with the Caco-2 cell layers). For basolateral to apical transport, 0.4 mL HBSS was added to the apical compartment and 1.2 mL HBSS containing 10 µM of the model compounds or a mixture of PFASs containing 1 µM of each PFAS, was added to the basolateral compartment. 100 µL aliquots were collected from the apical compartment and replaced with the same volume of HBSS at settled time points (0, 7.5, 15, 30 and 60 min for the model compounds with both models and the PFASs with the hiPSC-derived IEC layers and 0, 15, 30 and 60 min for PFASs with the Caco-2 cell layers). After 60 minutes, all liquid was collected from the apical and basolateral compartment and the cells were lysed in 200 µL RIPA buffer (Thermo Fisher Scientific), and chemicals were quantified in the different compartments (apical, basolateral and cells) in order to calculate the mass balance.
(§3) The apparent permeability coefficient (Papp, cm/s) was calculated using the following equation: […]

[3] = system: hiPSC-derived IEC layers; design: method as in Kabeya et al. ([2020]); conditions: apical to basolateral, ref Kabeya et al. ([2020]); cited from earlier work
[4] = system: Caco-2 model; conditions: cited from earlier work
[5] = system: EpiIntestinal model; conditions: apical to basolateral, ref Ayehunie et al. (2005); cited from earlier work
[6] = ref Ayehunie et al. (2005); cited from earlier work
[7] = Transport study across EpiIntestinal microtissues; conditions: human
Procedure: The human EpiIntestinal small intestinal microtissues, consisting of epithelial cells and an underlying lamina propria containing intestinal fibroblasts, were obtained from MatTek Life Sciences (Ashland, USA). Cell culture inserts (8.8 mm ID) were placed in 12-well plates and cells were maintained in 100 µl maintenance medium (MatTek Life Sciences) in the apical compartment and 5 ml maintenance medium in the basolateral compartment upon arrival. The transport studies were performed 1 day after arrival.
as §1, §2, §3
where A is the surface area (cm^2), dQ is the amount of the compound transported (nmol) over the respective time interval dt (s) and C0 is the initial concentration in the donor compartment (µM).

Papp A→B at 60 min, 10 µM [1] | Papp B→A at 60 min, 10 µM [1] | Papp A→B at 60 min, 10 µM [2] | Papp B→A at 60 min, 10 µM [2] | SMILES | Average Papp A - B ([4]; ref Ayehunie et al. 2018) | Average Papp A - B ([4]; ref Yazdanian et al. 1998) | Average Papp A–B [5] | Fa (fraction absorbed in humans) [6] | Papp A→B at 60 min, 1 µM [1] | Papp B→A at 60 min, 1 µM [1] | efflux ratio at 60 min, 1 µM [1] | Papp A→B at 60 min, 1 µM [2] | Papp B→A at 60 min, 1 µM [2] | efflux ratio at 60 min, 1 µM [2] | Papp A→B at 60 min, 1 µM [7] | Papp B→A at 60 min, 1 µM [7] | efflux ratio at 60 min, 1 µM [7] | other results
1.95 ± 0.02 ×10⁻⁶ cm/s | 7.17 ± 0.27 ×10⁻⁶ cm/s | 0.42 ± 0.03 ×10⁻⁶ cm/s | 3.09 ± 0.07 ×10⁻⁶ cm/s | CCCC(=O)Nc1ccc(OCC(O)CNC(C)C)c(C(C)=O)c1 (stereo not shown) [Acebutolol, acebutolol] | 0.4 ×10⁻⁶ cm/s | 0.51 ×10⁻⁶ cm/s | 0.4 ± 0.1^a × 10^–6 cm/s | 40% |  |  |  |  |  |  |  |  |  | efflux ratio at 60 min, 10 µM [1]: 3.67; efflux ratio at 60 min, 10 µM [2]: 7.37; Average Papp A–B [3]: 2.35 ± 0.88 × 10^–6 cm/s; Average Papp A - B ([4]; ref Kabeya et al. 2020): 0.35 ×10⁻⁶ cm/s; Average Papp A - B ([4]; ref Liang et al. 2000): 0.51 ×10⁻⁶ cm/s
 |  |  |  | CC(C)NCC(O)COc1ccc(CC(N)=O)cc1 (stereo not shown) [Atenolol, atenolol] |  |  |  | 50% |  |  |  |  |  |  |  |  |  | 
2.95 ± 0.41 ×10⁻⁶ cm/s | 3.68 ± 0.1 ×10⁻⁶ cm/s | 0.28 ± 0.04 ×10⁻⁶ cm/s | 0.43 ± 0.05 ×10⁻⁶ cm/s | CCOC(=O)[C@H](CCc1ccccc1)N[C@@H](C)C(=O)N1CCC[C@H]1C(=O)O [Enalapril, enalapril] | 0.2 ×10⁻⁶ cm/s |  | 0.4 ± 0.2^a × 10^–6 cm/s | 40% |  |  |  |  |  |  |  |  |  | efflux ratio at 60 min, 10 µM [1]: 1.25; efflux ratio at 60 min, 10 µM [2]: 1.55; Average Papp A–B [3]: 1.93 ± 0.46 × 10^–6 cm/s; Average Papp A - B ([4]; ref Grès et al. 1998): 0.62 ×10⁻⁶ cm/s; Average Papp A - B ([4]; ref Kabeya et al. 2020): 0.19 ×10⁻⁶ cm/s; Average Papp A - B ([4]; ref Logoyda et al. 2018): 1.31 ×10⁻⁶ cm/s
 |  |  |  | O=S(=O)(O)C(F)(F)C(F)(F)C(F)(F)C(F)(F)C(F)(F)C(F)(F)F [PFHxS, perfluorohexane sulfonate] |  |  |  |  | 3.95 ± 0.47 ×10⁻⁶ cm/s | 6.71 ± 0.43 ×10⁻⁶ cm/s | 1.7 | 8.78 ± 1.76 ×10⁻⁶ cm/s | 11.6 ± 0.2 ×10⁻⁶ cm/s | 1.33 | 12.5 ± 0.78 ×10⁻⁶ cm/s | 14.1 ± 0.67 ×10⁻⁶ cm/s | 1.13 | 
 |  |  |  | O=C(O)C(F)(F)C(F)(F)C(F)(F)C(F)(F)C(F)(F)C(F)(F)C(F)(F)C(F)(F)F [PFNA, perfluorononanoic acid] |  |  |  |  | 1.95 ± 0.27 ×10⁻⁶ cm/s | 2.88 ± 0.28 ×10⁻⁶ cm/s | 1.48 | 4.55 ± 0.56 ×10⁻⁶ cm/s | 3.14 ± 0.33 ×10⁻⁶ cm/s | 0.69 | 8.48 ± 0.57 ×10⁻⁶ cm/s | 7.51 ± 0.5 ×10⁻⁶ cm/s | 0.89 | 
 |  |  |  | O=C(O)C(F)(F)C(F)(F)C(F)(F)C(F)(F)C(F)(F)C(F)(F)C(F)(F)F [PFOA, perfluorooctanoic acid] |  |  |  |  | 3.27 ± 0.45 ×10⁻⁶ cm/s | 5.3 ± 0.42 ×10⁻⁶ cm/s | 1.62 | 4.23 ± 0.41 ×10⁻⁶ cm/s | 5.75 ± 0.97 ×10⁻⁶ cm/s | 1.36 | 7.31 ± 0.43 ×10⁻⁶ cm/s | 6.99 ± 0.82 ×10⁻⁶ cm/s | 0.96 | 
 |  |  |  | O=S(=O)(O)C(F)(F)C(F)(F)C(F)(F)C(F)(F)C(F)(F)C(F)(F)C(F)(F)C(F)(F)F [PFOS, perfluorooctane sulfonate] |  |  |  |  | 0.63 ± 0.08 ×10⁻⁶ cm/s | 0.82 ± 0.17 ×10⁻⁶ cm/s | 1.31 | 2.88 ± 0.2 ×10⁻⁶ cm/s | 1.06 ± 11 ×10⁻⁶ cm/s | 0.37 | 5.97 ± 0.05 ×10⁻⁶ cm/s | 3.31 ± 0.22 ×10⁻⁶ cm/s | 0.55 | 
26.7 ± 1.4 ×10⁻⁶ cm/s | 17.9 ± 0.93 ×10⁻⁶ cm/s | 11.8 ± 1.07 ×10⁻⁶ cm/s | 8.13 ± 0.12 ×10⁻⁶ cm/s | CC(C)NCC(O)COc1cccc2ccccc12 (stereo not shown) [Propranolol, propranolol] | 12.9 ×10⁻⁶ cm/s | 21.8 ×10⁻⁶ cm/s | 9.4 ± 5.4^b × 10^–6 cm/s |  |  |  |  |  |  |  |  |  |  | Average Papp A - B ([4]; ref Artursson et al. 1991): 41.9 ×10⁻⁶ cm/s; Average Papp A - B ([4]; ref Grès et al. 1998): 34.4 ×10⁻⁶ cm/s; Average Papp A - B ([4]; ref Logoyda et al. 2018): 36.13 ×10⁻⁶ cm/s; Average Papp A - B ([4]; ref Nožinić et al. 2010): 0.12 ×10⁻⁶ cm/s; Average Papp A - B ([4]; ref Walgren et al. 1999): 35.3 ×10⁻⁶ cm/s
22.3 ± 0.4 ×10⁻⁶ cm/s | 25.5 ± 1.17 ×10⁻⁶ cm/s |  |  | C=C[C@H]1C[N@@]2CC[C@H]1C[C@@H]2[C@@H](O)c1ccnc2ccc(OC)cc12 [Quinidine, quinidine] |  |  | 7.9 ± 2.7^a × 10^–6 cm/s |  |  |  |  |  |  |  |  |  |  | 
 |  | 17.9 ± 1.39 ×10⁻⁶ cm/s | 24.5 ± 0.94 ×10⁻⁶ cm/s | CC(=O)CC(c1ccccc1)c1c(O)c2ccccc2oc1=O (stereo not shown) [Warfarin, warfarin] | 28.6 ×10⁻⁶ cm/s | 21.1 ×10⁻⁶ cm/s | 36.7 ± 16.8^a × 10^–6 cm/s |  |  |  |  |  |  |  |  |  |  | Average Papp A - B ([4]; ref Artursson et al. 1991): 38.3 ×10⁻⁶ cm/s; Average Papp A - B ([4]; ref Gschwind et al. 2013): 22.7 ×10⁻⁶ cm/s
